Assay results as given in US6355799B1, “Substituted benzene compounds, process for their preparation, and herbicidal and defoliant compositions containing them” (ISK Americas Incorporated, priority 1997, dated 2002).

Columns and labels:
Format in all cases: in vivo
[1] = system: redroot pigweed (Amaranthus retroflexus, AMARE); experiment: Pre-emerge test, greenhouse herbicide activity screening; conditions: for phytotoxicity rating AMARE: pre-emerge, 14 days after application, scale 0-100; for Pre-emerge herbicidal activity, phytotoxicity rating AMARE: rating scale 0-100, 14 days after application
In short: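 Compounds in acetone were track-sprayed at 187 l/ha, 15–1000 g ai/ha, onto sandy loam pots. Pre-emerge seeds were sown one day before spraying, with surface watering afterwards. Post-emerge plants were at the 2–3 leaf stage and sprayed with 0.25% v/v non-ionic surfactant. Injury was rated 0–100 at 14 days.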

[2] = system: barnyardgrass (Echinochloa crus-galli, ECHCG); experiment: as above; conditions: for phytotoxicity rating ECHCG: pre-emerge, 14 days after application, scale 0-100; for Pre-emerge herbicidal activity, phytotoxicity rating ECHCG: rating scale 0-100, 14 days after application
In short: (§1)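 Compounds in acetone were track-sprayed at 15–1000 g ai/ha: pre-emergence onto soil sown the previous day, then top-watered to incorporate and later bottom-watered; post-emergence onto 2–3 leaf plants with 0.25% v/v surfactant, bottom-watered only. Ratings on a 0–100 phytotoxicity scale were taken at day 14.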

[3] = system: common ragweed (Ambrosia artemisizfolia L., AMBEL); experiment: as above; conditions: for phytotoxicity rating AMBEL: pre-emerge, 14 days after application, scale 0-100; for Pre-emerge herbicidal activity, phytotoxicity rating AMBEL: rating scale 0-100, 14 days after application
In short: as §1

[4] = system: green foxtail (Setaria viridis, SETVI); experiment: as above; conditions: for phytotoxicity rating SETVI: pre-emerge, 14 days after application, scale 0-100; for Pre-emerge herbicidal activity, phytotoxicity rating SETVI: rating scale 0-100, 14 days after application
In short: as §1

[5] = system: ivyleaf morningglory (Ipomoea hederacea, IPOHE); experiment: as above; conditions: for phytotoxicity rating IPOHE: pre-emerge, 14 days after application, scale 0-100; for Pre-emerge herbicidal activity, phytotoxicity rating IPOHE: rating scale 0-100, 14 days after application
In short: as §1

[6] = system: johnsongrass (Sorghum halepense, SORHA); experiment: as above; conditions: for phytotoxicity rating SORHA: pre-emerge, 14 days after application, scale 0-100; for Pre-emerge herbicidal activity, phytotoxicity rating SORHA: rating scale 0-100, 14 days after application
In short: as §1

[7] = system: lambsquarters (Chenopodium album, CHEAL); experiment: as above; conditions: for phytotoxicity rating CHEAL: pre-emerge, 14 days after application, scale 0-100; for Pre-emerge herbicidal activity, phytotoxicity rating CHEAL: rating scale 0-100, 14 days after application
In short: as §1

[8] = system: large crabgrass (Digitaria sanguinalis, DIGSA); experiment: as above; conditions: for phytotoxicity rating DIGSA: pre-emerge, 14 days after application, scale 0-100; for Pre-emerge herbicidal activity, phytotoxicity rating DIGSA: rating scale 0-100, 14 days after application
In short: as §1

[9] = system: sicklepod (Cassia obtusifolia, CASOB); experiment: as above; conditions: for phytotoxicity rating CASOB: pre-emerge, 14 days after application, scale 0-100; for Pre-emerge herbicidal activity, phytotoxicity rating CASOB: rating scale 0-100, 14 days after application
In short: as §1

[10] = system: velvetleaf (Abutilon theophrasti, ABUTH); experiment: as above; conditions: for phytotoxicity rating ABUTH: pre-emerge, 14 days after application, scale 0-100; for Pre-emerge herbicidal activity, phytotoxicity rating ABUTH: rating scale 0-100, 14 days after application
In short: as §1

[11] = system: field corn (Zea mays L., var. Dekalb 535, CORN); experiment: Pre-emerge test, crop safety; conditions: pre-emerge, 14 days after application, scale 0-100
In short: (§2)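 Fourteen days after spraying, crop and weed injury was graded visually from 0, no effect, to 100, every plant dead. Test substances were dissolved in acetone and applied at 15–1000 g ai/ha with a flat-fan nozzle. Application was either pre-emergence, one day after sowing, or post-emergence at the 2–3 leaf stage.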

[12] = system: upland rice (Oryza sp., var. Tebonnet, RICE); experiment: Pre-emerge test, crop safety; conditions: pre-emerge, 14 days after application, scale 0-100
In short: as §2

[13] = system: barnyardgrass (Echinochloa crus-galli, ECHCG); experiment: Post-emerge test, greenhouse herbicide activity screening; conditions: for ECHCG phytotoxicity rating: rating scale 0-100
In short: as §1

[14] = system: green foxtail (Setaria viridis, SETVI); experiment: as above; conditions: for SETVI phytotoxicity rating: rating scale 0-100
In short: as §1

[15] = system: ivyleaf morningglory (Ipomoea hederacea, IPOHE); experiment: as above; conditions: for IPOHE phytotoxicity rating: rating scale 0-100
In short: as §1

[16] = system: johnsongrass (Sorghum halepense, SORHA); experiment: as above; conditions: for SORHA phytotoxicity rating: rating scale 0-100
In short: as §1

[17] = system: lambsquarters (Chenopodium album, CHEAL); experiment: as above; conditions: for CHEAL phytotoxicity rating: rating scale 0-100
In short: as §1

[18] = system: large crabgrass (Digitaria sanguinalis, DIGSA); experiment: as above; conditions: for DIGSA phytotoxicity rating: rating scale 0-100
In short: as §1

[19] = system: redroot pigweed (Amaranthus retroflexus, AMARE); experiment: as above; conditions: for AMARE phytotoxicity rating: rating scale 0-100
In short: as §1

[20] = system: sicklepod (Cassia obtusifolia, CASOB); experiment: as above; conditions: for CASOB phytotoxicity rating: rating scale 0-100
In short: as §1

[21] = system: velvetleaf (Abutilon theophrasti, ABUTH); experiment: as above; conditions: for ABUTH phytotoxicity rating: rating scale 0-100
In short: as §1

[22] = system: field corn (Zea mays L., var. Dekalb 535, CORN); experiment: Post-emerge test, crop safety; conditions: post-emerge, 14 days after application, rating scale 0-100
In short: (§3)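 Rating: 0–100 visual injury, 14 DAA. Application: acetone, 187 l/ha, 15–1000 g ai/ha, flat-fan track sprayer with nozzle 40–45 cm above soil or canopy. Post-emerge runs used 0.25% v/v surfactant on 2–3 leaf plants.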

[23] = system: upland rice (Oryza sp., var. Tebonnet, RICE); experiment: Post-emerge test, crop safety; conditions: post-emerge, 14 days after application, rating scale 0-100
In short: as §3

[24] = post-emerge, 63 g ai/ha, 14 days after application
[25] = post-emerge, 250 g ai/ha, 14 days after application
[26] = Rate 250 g ai/ha, rating scale 0-100 (0 no damage, 100 complete death), 14 days after application

COc1c(Cl)cc(F)c(-n2c(=O)cc(C(F)(F)F)n(C)c2=O)c1NC(=O)c1ccc2c(C#N)cccc2c1 [2-163]
phytotoxicity rating AMARE ([1]; 63 g ai/ha): 100 | phytotoxicity rating AMARE ([1]; 250 g ai/ha): 100 | phytotoxicity rating ECHCG ([2]; 63 g ai/ha): 0 | phytotoxicity rating ECHCG ([2]; 250 g ai/ha): 75 | phytotoxicity rating AMBEL ([3]; 63 g ai/ha): 65 | phytotoxicity rating AMBEL ([3]; 250 g ai/ha): 95 | phytotoxicity rating SETVI ([4]; 63 g ai/ha): 60 | phytotoxicity rating SETVI ([4]; 250 g ai/ha): 95 | phytotoxicity rating IPOHE ([5]; 63 g ai/ha): 40 | phytotoxicity rating IPOHE ([5]; 250 g ai/ha): 95 | phytotoxicity rating SORHA ([6]; 63 g ai/ha): 0 | phytotoxicity rating SORHA ([6]; 250 g ai/ha): 30 | phytotoxicity rating CHEAL ([7]; 63 g ai/ha): 100 | phytotoxicity rating CHEAL ([7]; 250 g ai/ha): 100 | phytotoxicity rating DIGSA ([8]; 63 g ai/ha): 35 | phytotoxicity rating DIGSA ([8]; 250 g ai/ha): 100 | phytotoxicity rating CASOB ([9]; 63 g ai/ha): 10 | phytotoxicity rating CASOB ([9]; 250 g ai/ha): 60 | phytotoxicity rating ABUTH ([10]; 63 g ai/ha): 95 | phytotoxicity rating ABUTH ([10]; 250 g ai/ha): 100 | phytotoxicity rating CORN (crop damage) ([11]; 63 g ai/ha): 0 | phytotoxicity rating CORN (crop damage) ([11]; 250 g ai/ha): 0 | phytotoxicity rating RICE (crop damage) ([12]; 63 g ai/ha): 0 | phytotoxicity rating RICE (crop damage) ([12]; 250 g ai/ha): 30 | ECHCG phytotoxicity rating [13, 24]: 55 | ECHCG phytotoxicity rating [13, 25]: 70 | SETVI phytotoxicity rating [14, 24]: 50 | SETVI phytotoxicity rating [14, 25]: 60 | IPOHE phytotoxicity rating [15, 24]: 98 | IPOHE phytotoxicity rating [15, 25]: 95 | SORHA phytotoxicity rating [16, 24]: 0 | SORHA phytotoxicity rating [16, 25]: 10 | CHEAL phytotoxicity rating [17, 24]: 100 | CHEAL phytotoxicity rating [17, 25]: 100 | DIGSA phytotoxicity rating [18, 24]: 30 | DIGSA phytotoxicity rating [18, 25]: 45 | AMARE phytotoxicity rating [19, 24]: 100 | AMARE phytotoxicity rating [19, 25]: 100 | CASOB phytotoxicity rating [20, 24]: 90 | CASOB phytotoxicity rating [20, 25]: 90 | ABUTH phytotoxicity rating [21, 24]: 99 | ABUTH phytotoxicity rating [21, 25]: 100 | CORN phytotoxicity rating (crop damage) ([22]; 63 g ai/ha): 35 | CORN phytotoxicity rating (crop damage) ([22]; 250 g ai/ha): 40 | RICE phytotoxicity rating (crop damage) ([23]; 63 g ai/ha): 20 | RICE phytotoxicity rating (crop damage) ([23]; 250 g ai/ha): 55

O=C(Nc1cc(Cl)ccc1N1C(=O)c2ccccc2C1=O)c1ccc2ccccc2c1 [Compound 13-5, N-[4-chloro-2-(2-naphthoylamino)phenyl]phthalimide]
Pre-emerge herbicidal activity, phytotoxicity rating AMARE ([1]; 63 g ai/ha): 30 | Pre-emerge herbicidal activity, phytotoxicity rating AMARE ([1]; 250 g ai/ha): 95 | Pre-emerge herbicidal activity, phytotoxicity rating ECHCG ([2]; 63 g ai/ha): 0 | Pre-emerge herbicidal activity, phytotoxicity rating ECHCG ([2]; 250 g ai/ha): 0 | Pre-emerge herbicidal activity, phytotoxicity rating AMBEL ([3]; 63 g ai/ha): 0 | Pre-emerge herbicidal activity, phytotoxicity rating AMBEL ([3]; 250 g ai/ha): 0 | Pre-emerge herbicidal activity, phytotoxicity rating SETVI ([4]; 63 g ai/ha): 30 | Pre-emerge herbicidal activity, phytotoxicity rating SETVI ([4]; 250 g ai/ha): 50 | Pre-emerge herbicidal activity, phytotoxicity rating IPOHE ([5]; 63 g ai/ha): 0 | Pre-emerge herbicidal activity, phytotoxicity rating IPOHE ([5]; 250 g ai/ha): 0 | Pre-emerge herbicidal activity, phytotoxicity rating SORHA ([6]; 63 g ai/ha): 0 | Pre-emerge herbicidal activity, phytotoxicity rating SORHA ([6]; 250 g ai/ha): 30 | Pre-emerge herbicidal activity, phytotoxicity rating CHEAL ([7]; 63 g ai/ha): 20 | Pre-emerge herbicidal activity, phytotoxicity rating CHEAL ([7]; 250 g ai/ha): 50 | Pre-emerge herbicidal activity, phytotoxicity rating DIGSA ([8]; 63 g ai/ha): 0 | Pre-emerge herbicidal activity, phytotoxicity rating DIGSA ([8]; 250 g ai/ha): 10 | Pre-emerge herbicidal activity, phytotoxicity rating CASOB ([9]; 63 g ai/ha): 0 | Pre-emerge herbicidal activity, phytotoxicity rating CASOB ([9]; 250 g ai/ha): 0 | Pre-emerge herbicidal activity, phytotoxicity rating ABUTH ([10]; 63 g ai/ha): 0 | Pre-emerge herbicidal activity, phytotoxicity rating ABUTH ([10]; 250 g ai/ha): 0 | pest or weed control at 63 g/ha ([13]; Echinochloa crus-galli, post-emergence, 336 h, post-emerge, 63 g ai/ha, phytotoxicity rating 0-100 at 14 days after application, read-out: Post-emerge Herbicidal Activity ECHCG): 0% | Post-emerge Herbicidal Activity, phytotoxicity rating ECHCG [13, 26]: 0 | Post-emerge Herbicidal Activity, phytotoxicity rating SETVI [14, 26]: 10 | pest or weed control at 63 g/ha ([14]; Setaria viridis, post-emergence, 336 h, post-emerge, 63 g ai/ha, phytotoxicity rating 0-100 at 14 days after application, read-out: Post-emerge Herbicidal Activity SETVI): 0% | pest or weed control at 63 g/ha ([15]; Ipomoea, post-emergence, 336 h, post-emerge, 63 g ai/ha, phytotoxicity rating 0-100 at 14 days after application, read-out: Post-emerge Herbicidal Activity IPOHE): 50% | Post-emerge Herbicidal Activity, phytotoxicity rating IPOHE [15, 26]: 60 | Post-emerge Herbicidal Activity, phytotoxicity rating SORHA [16, 26]: 0 | pest or weed control at 63 g/ha ([16]; Sorghum halepense, post-emergence, 336 h, post-emerge, 63 g ai/ha, phytotoxicity rating 0-100 at 14 days after application, read-out: Post-emerge Herbicidal Activity SORHA): 0% | pest or weed control at 63 g/ha ([17]; Chenopodium album, post-emergence, 336 h, post-emerge, 63 g ai/ha, phytotoxicity rating 0-100 at 14 days after application, read-out: Post-emerge Herbicidal Activity CHEAL): 95% | Post-emerge Herbicidal Activity, phytotoxicity rating CHEAL [17, 26]: 90 | pest or weed control at 63 g/ha ([18]; Digitaria sanguinalis, post-emergence, 336 h, post-emerge, 63 g ai/ha, phytotoxicity rating 0-100 at 14 days after application, read-out: Post-emerge Herbicidal Activity DIGSA): 0% | Post-emerge Herbicidal Activity, phytotoxicity rating DIGSA [18, 26]: 20 | pest or weed control at 63 g/ha ([19]; Amaranthus retroflexus, post-emergence, 336 h, post-emerge, 63 g ai/ha, phytotoxicity rating 0-100 at 14 days after application, read-out: Post-emerge Herbicidal Activity AMARE): 70% | Post-emerge Herbicidal Activity, phytotoxicity rating AMARE [19, 26]: 75 | Post-emerge Herbicidal Activity, phytotoxicity rating CASOB [20, 26]: 30 | pest or weed control at 63 g/ha ([20]; Senna obtusifolia, post-emergence, 336 h, post-emerge, 63 g ai/ha, phytotoxicity rating 0-100 at 14 days after application, read-out: Post-emerge Herbicidal Activity CASOB): 40% | pest or weed control at 63 g/ha ([21]; Abutilon theophrasti, post-emergence, 336 h, post-emerge, 63 g ai/ha, phytotoxicity rating 0-100 at 14 days after application, read-out: Post-emerge Herbicidal Activity ABUTH): 70% | Post-emerge Herbicidal Activity, phytotoxicity rating ABUTH [21, 26]: 70
